Test results taken from PubChem BioAssay AID1963853 (Molecular Pharmacology Branch, DTP, NCI, 2024).
pIC50: −log10 of the molar value.

Tested on: 266295-075-R-J1-PDC spheroid viability
Test: Anticancer human tumor 266295-075-R-J1-PDC patient-derived head and neck squamous carcinoma cell line growth inhibition [POLQ]
Details: spheroids with HUVEC and MSC; for pIC50: curve of first compound; for viability, T/C: stronger effect = lower value
Summary of the method: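 Growth inhibition in 3D: complex spheroids (tumor PDC, HUVEC, MSC) treated with POLQ inhibitor combinations; where Cmax unknown, highest tested concentration 10 microM, except SN-38 at 1 microM.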

[1] = second compound 0.0316 µM, first compound 0.0316 µM
[2] = second compound 0.0316 µM, first compound 0.1 µM
[3] = second compound 0.0316 µM, first compound 0.316 µM
[4] = second compound 0.0316 µM, first compound 1 µM
[5] = second compound 0.0316 µM, first compound 3.16 µM
[6] = second compound 0.0316 µM, first compound 10 µM
[7] = second compound 0.1 µM, first compound 0.0316 µM
[8] = second compound 0.1 µM, first compound 0.1 µM
[9] = second compound 0.1 µM, first compound 0.316 µM
[10] = second compound 0.1 µM, first compound 1 µM
[11] = second compound 0.1 µM, first compound 3.16 µM
[12] = second compound 0.1 µM, first compound 10 µM
[13] = second compound 0.316 µM, first compound 0.0316 µM
[14] = second compound 0.316 µM, first compound 0.1 µM
[15] = second compound 0.316 µM, first compound 0.316 µM
[16] = second compound 0.316 µM, first compound 1 µM
[17] = second compound 0.316 µM, first compound 3.16 µM
[18] = second compound 0.316 µM, first compound 10 µM
[19] = second compound 1 µM, first compound 0.0316 µM
[20] = second compound 1 µM, first compound 0.1 µM
[21] = second compound 1 µM, first compound 0.316 µM
[22] = second compound 1 µM, first compound 1 µM
[23] = second compound 1 µM, first compound 3.16 µM
[24] = second compound 1 µM, first compound 10 µM
[25] = second compound 3.16 µM, first compound 0.0316 µM
[26] = second compound 3.16 µM, first compound 0.1 µM
[27] = second compound 3.16 µM, first compound 0.316 µM
[28] = second compound 3.16 µM, first compound 1 µM
[29] = second compound 3.16 µM, first compound 3.16 µM
[30] = second compound 3.16 µM, first compound 10 µM
[31] = second compound 10 µM, first compound 0.0316 µM
[32] = second compound 10 µM, first compound 0.1 µM
[33] = second compound 10 µM, first compound 0.316 µM
[34] = second compound 10 µM, first compound 1 µM
[35] = second compound 10 µM, first compound 3.16 µM
[36] = second compound 10 µM, first compound 10 µM
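Further: spheroids exposed to compounds for seven days before readout.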

Compound `CC1COCCN1c1cc(C2(O)CC3CCC(C2)O3)c2cnn(-c3ccn[nH]3)c2n1` (stereo unspecified) + Cc1cccc(N(C)C(=O)C2C(O)CCN2c2nc(C)cc(C(F)(F)F)c2C#N)c1 has a pIC50 (second compound 0.0316 µM) of 6.08, a pIC50 (second compound 0.1 µM) of 6.06 and a pIC50 (second compound 0.316 µM) of 6.04. It also gave a pIC50 (second compound 1 µM) of 6.25, a pIC50 (second compound 3.16 µM) of 6.07 and a pIC50 (second compound 10 µM) of 6.01. It also gave a viability, T/C [1] of 84%, a viability, T/C [2] of 74.1% and a viability, T/C [3] of 61.3%. It also gave a viability, T/C [4] of 47%, a viability, T/C [5] of 36.8% and a viability, T/C [6] of 25%. The viability, T/C [7] was 86%, the viability, T/C [8] was 69.1% and the viability, T/C [9] was 76.2%. It also gave a viability, T/C [10] of 46%, a viability, T/C [11] of 37.5% and a viability, T/C [12] of 29.7%. It also gave a viability, T/C [13] of 82.1%, a viability, T/C [14] of 74.1% and a viability, T/C [15] of 60.6%. For the same compound, the viability, T/C [16] was 49%, the viability, T/C [17] was 37.6% and the viability, T/C [18] was 26.3%. It also gave a viability, T/C [19] of 94.1%, a viability, T/C [20] of 63.6% and a viability, T/C [21] of 58.4%. For the same compound, the viability, T/C [22] was 45.9%, the viability, T/C [23] was 40% and the viability, T/C [24] was 26.1%. For the same compound, the viability, T/C [25] was 89.5%, the viability, T/C [26] was 74% and the viability, T/C [27] was 60.3%. It also gave a viability, T/C [28] of 51.5%, a viability, T/C [29] of 34.5% and a viability, T/C [30] of 31.1%. The viability, T/C [31] was 114%, the viability, T/C [32] was 88.8% and the viability, T/C [33] was 69.1%. The viability, T/C [34] was 49.4%, the viability, T/C [35] was 35.2% and the viability, T/C [36] was 28.1%.

In the case of `O=C(Nc1ccc(O)c(NS(=O)(=O)c2ccc(F)cc2)c1)c1ccc(-c2ccccc2)cc1` + Cc1cccc(N(C)C(=O)C2C(O)CCN2c2nc(C)cc(C(F)(F)F)c2C#N)c1, the pIC50 (second compound 0.0316 µM) was less than 5.00, the pIC50 (second compound 0.1 µM) was less than 5.00 and the pIC50 (second compound 0.316 µM) was less than 5.00. It also gave a pIC50 (second compound 1 µM) of less than 5.00, a pIC50 (second compound 3.16 µM) of less than 5.00 and a pIC50 (second compound 10 µM) of less than 5.00. It also gave a viability, T/C [1] of 96.1%, a viability, T/C [2] of 104% and a viability, T/C [3] of 125%. For the same compound, the viability, T/C [4] was 139%, the viability, T/C [5] was 144% and the viability, T/C [6] was 103%. The viability, T/C [7] was 118%, the viability, T/C [8] was 104% and the viability, T/C [9] was 124%. For the same compound, the viability, T/C [10] was 110%, the viability, T/C [11] was 123% and the viability, T/C [12] was 97.7%. The viability, T/C [13] was 107%, the viability, T/C [14] was 87.6% and the viability, T/C [15] was 76.6%. For the same compound, the viability, T/C [16] was 95.2%, the viability, T/C [17] was 146% and the viability, T/C [18] was 88.3%. For the same compound, the viability, T/C [19] was 102%, the viability, T/C [20] was 97% and the viability, T/C [21] was 103%. It also gave a viability, T/C [22] of 129%, a viability, T/C [23] of 114% and a viability, T/C [24] of 85.5%. It also gave a viability, T/C [25] of 136%, a viability, T/C [26] of 94.5% and a viability, T/C [27] of 110%. For the same compound, the viability, T/C [28] was 136%, the viability, T/C [29] was 127% and the viability, T/C [30] was 103%. It also gave a viability, T/C [31] of 108%, a viability, T/C [32] of 113% and a viability, T/C [33] of 113%. The viability, T/C [34] was 108%, the viability, T/C [35] was 142% and the viability, T/C [36] was 97.2%.

With `COc1cccc2c1C(=O)c1c(O)c3c(c(O)c1C2=O)CC(O)(C(=O)CO)CC3OC1CC(N)C(O)C(C)O1` (stereo unspecified) + Nc1ccc(C#CCN(C(=O)Cc2ncc(C(F)(F)F)cc2C(F)(F)F)c2ccc(F)cc2)nn1 the pIC50 (second compound 0.0316 µM) was 5.35, the pIC50 (second compound 0.1 µM) was 5.43 and the pIC50 (second compound 0.316 µM) was 5.36. For the same compound, the pIC50 (second compound 1 µM) was 5.36, the pIC50 (second compound 3.16 µM) was 5.46 and the pIC50 (second compound 10 µM) was 5.61. The viability, T/C [1] was 93%, the viability, T/C [2] was 106% and the viability, T/C [3] was 74.4%. For the same compound, the viability, T/C [4] was 83.8%, the viability, T/C [5] was 72.4% and the viability, T/C [6] was 2.33%. The viability, T/C [7] was 126%, the viability, T/C [8] was 103% and the viability, T/C [9] was 89.2%. It also gave a viability, T/C [10] of 80.5%, a viability, T/C [11] of 71.8% and a viability, T/C [12] of 2.03%. For the same compound, the viability, T/C [13] was 119%, the viability, T/C [14] was 106% and the viability, T/C [15] was 74.2%. For the same compound, the viability, T/C [16] was 96.6%, the viability, T/C [17] was 72.9% and the viability, T/C [18] was 1.67%. The viability, T/C [19] was 92.7%, the viability, T/C [20] was 84.3% and the viability, T/C [21] was 89.3%. It also gave a viability, T/C [22] of 77.9%, a viability, T/C [23] of 71.8% and a viability, T/C [24] of 2.11%. For the same compound, the viability, T/C [25] was 103%, the viability, T/C [26] was 102% and the viability, T/C [27] was 73.9%. The viability, T/C [28] was 74.2%, the viability, T/C [29] was 64% and the viability, T/C [30] was 1.77%. It also gave a viability, T/C [31] of 134%, a viability, T/C [32] of 99.5% and a viability, T/C [33] of 90.1%. It also gave a viability, T/C [34] of 73.8%, a viability, T/C [35] of 53.3% and a viability, T/C [36] of 2.11%.
